Article PMC4290037, “Purification and Characterization of Glucose-6-Phosphate Dehydrogenase from Camel Liver” (Enzyme Research, 2014)

Biological target: T1, Glucose-6-phosphate dehydrogenase (camel liver G6PD) (Camelus dromedarius, UniProt G1EHI3)
T1 construct: native enzyme purified from camel liver (subunit 64 kDa, native 194 kDa)
Test: enzyme inhibition kinetics of purified enzyme (Lineweaver-Burk, Hill plot, slope replot)
Format: biochemical

T1 sequence (G1EHI3 entry or part of it): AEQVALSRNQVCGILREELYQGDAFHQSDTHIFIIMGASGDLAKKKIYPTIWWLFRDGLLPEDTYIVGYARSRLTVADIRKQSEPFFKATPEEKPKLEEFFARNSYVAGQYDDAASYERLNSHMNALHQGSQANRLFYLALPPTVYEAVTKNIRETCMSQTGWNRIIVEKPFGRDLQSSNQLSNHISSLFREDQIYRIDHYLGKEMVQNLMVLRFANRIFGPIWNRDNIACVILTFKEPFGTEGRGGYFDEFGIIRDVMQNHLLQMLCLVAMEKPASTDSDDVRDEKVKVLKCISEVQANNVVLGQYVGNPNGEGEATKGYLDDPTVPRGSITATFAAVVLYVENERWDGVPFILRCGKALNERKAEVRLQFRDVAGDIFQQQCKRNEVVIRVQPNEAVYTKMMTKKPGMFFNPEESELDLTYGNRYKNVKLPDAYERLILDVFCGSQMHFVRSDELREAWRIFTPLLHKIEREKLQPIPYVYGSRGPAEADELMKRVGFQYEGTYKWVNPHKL

Ki: 35 µM
Structure (SMILES): NC(=O)C1=CN([C@@H]2O[C@H](COP(=O)(O)OP(=O)(O)OC[C@H]3O[C@@H](n4cnc5c(N)ncnc54)[C@H](OP(=O)(O)O)[C@@H]3O)[C@@H](O)[C@H]2O)C=CC1 [NADPH]
